A word on the pIC50: it is the negative decadic logarithm of the IC50, by convention in mol/L.

In ChEMBL document CHEMBL1141955, “Geometric diversity through permutation of backbone configuration in cyclic peptide libraries” (Bioorg Med Chem Lett, 2005) one finds IC50 data, which are given here for two compounds.

pIC50: −log10 of the molar value.

This experiment concerns the target Actin, cytoplasmic 1 (Xenopus laevis, UniProt O93400). Briefly: Inhibitory activity against actin assembly in xenopus by polymerisation assay.

Turning to `NCCCC[C@@H]1NC(=O)[C@H](CCC(N)=O)NC(=O)[C@H]2CCCN2C(=O)[C@H](Cc2ccccc2)NC(=O)[C@@H](Cc2ccccc2)NC(=O)[C@H]2CCCN2C(=O)[C@@H](Cc2ccccc2)NC1=O`, the IC50 entry is reported as “Not Active”.

Turning to `NCCCC[C@@H]1NC(=O)[C@H](CCC(N)=O)NC(=O)[C@H]2CCCN2C(=O)[C@H](Cc2ccccc2)NC(=O)[C@@H](Cc2ccccc2)NC(=O)[C@H]2CCCN2C(=O)[C@@H](Cc2ccccc2)NC(=O)[C@H](CCCCN)NC(=O)[C@H](CCC(N)=O)NC(=O)[C@H]2CCCN2C(=O)[C@H](Cc2ccccc2)NC(=O)[C@@H](Cc2ccccc2)NC(=O)[C@H]2CCCN2C(=O)[C@@H](Cc2ccccc2)NC1=O`, the pIC50 (read-out: IC50) is 5.70.
